Data on two molecules can be found in patent US20250255793A1, “ANTI-AGING CATALYST COMPOSITION COMPRISING A BLEND OF COSMETIC ACIDS” (LOREAL, priority 2024, published 2025).

In test [1] the test system is keratinocytes. Briefly: Taurine induced NAD+ stimulation in cultured keratinocytes. The settings on record: for NAD+ level: keratinocytes. Format: cell-based. How it is done: Cell studies were conducted in which the effects of taurine and niacinamide on the NAD+ production were assessed when keratinocytes were cultured with these raw materials. In all of the tested conditions supplemented with actives, the NAD+ of the cells were increased compared to the untreated control.
Taurine has been identified as an active of interest for skin care due to its potential benefits to boost cell energy. This report explores the effect of supplementing taurine with keratinocytes to understand its effect on increasing NAD+ level in the cells. […] In our in vitro study, we observed that vitamin C, vitamin E and ferulic acid imparts significant benefits to the cell cycle and cell division. When combined with anti-aging catalyst composition, the treatment not only enhances skin renewal and resurfacing benefits but also maintains the positive effects on cell cycle and cell division. This is evident in the more pronounced impact on pathways related to skin cornification and epidermis development compared to single type treatment.

Test [2] deals with UVB-induced wrinkle formation. To be noted: oral taurine supplementation; cited from earlier work.
For test [3], the system named is diabetic precataractous lens. The settings on record: dietary taurine supplementation; cited from earlier work.

Turning to `NC(=O)c1cccnc1` [niacinamide, reference compound], the “NAD+ level” value in test [1] (0.2% niacinamide) is “higher level of NAD+ compared to 0.05% niacinamide”.

With `NCCS(=O)(=O)O` [taurine], in test [2], the UVB-induced wrinkle formation result is listed as “suppress”. Besides, the “MDA levels, GSSG/GSH, and NAD+/NADH” value in test [3] was “ameliorates”. Further, the “NAD+ level” value in test [1] (0.05% taurine) is “comparable NAD+ level as compared to 0.2% niacinamide”. Besides, the “NAD+ of the cells compared to the untreated control” value in test [1] (keratinocytes cultured with raw material) was “stimulatory effect in increasing the NAD+ level”.
